Values quoted from earlier work as cited in patent US20220304972A1, “COMBINATION THERAPY AND BIOMARKER INDICATING EFFICACY THEREOF” (Sumitomo Dainippon Pharma Co., Ltd., priority 2019, published 2022).
Read-outs that look alike come from different tables or passages of the source.

System: CRC patients

## atezolizumab: anti-PD-L1 antibody, binds to PD-L1
MSS CRC, N=90 (2/90), Bendell et al. 2018, NCT02788279
  ORR: 2.2%

## nivolumab: anti-PD-1 antibody, binds to PD-1
CRC, N=14 (1/14), Brahmer 2010
  ORR: 7
Refractory CRC, N=19, Topialan et al. 2012, NCT00730639
  ORR: 0

## pembrolizumab: anti-PD-1 antibody, binds to PD-1
MSS CRC, N=18, Le et al. 2015, NCT01876511
  ORR: 0
PD-1 positive MSS CRC, N=22, O' Neil et al. 2017, NCT02054806
  ORR: 0
